In patent US20230338539A1, “METHOD OF TREATING DIFFICULT TO ACCESS TUMORS WITH PHOTOACTIVATED CANCER THERAPY” (priority 2020, published 2023):

What was measured:
[1] = system: CT2A (murine malignant glioma); experiment: UV light activated psoralen, Cell-Titer-Glo Luminescence Cell Viability Assay (FIG. 3A); format: cell-based; settings: psoralen 40 μM; UV light 0, 0.25, 0.5, 1.0 J/cm^2
Description: (§1) Metabolic cell viability was also assessed visually using Methylene blue staining and ATP-induced Luminescence imaging (Cell-Titer-Glo® Luminescence Cell Viability Assay). The luminescence imaging permitted investigation of the cytotoxicity of psoralen activated directly with a UV lamp, and in the absence of phosphors and x-ray radiation. […] N=4 for each cell line at each UV light condition (0, 0.25, 0.5, 1.0 J/cm^2). The psoralen concentration was 40 μM.

[2] = system: syngeneic 4T1-HER2 tumors; experiment: In-vivo X-PACT trial on syngeneic tumors (FIG. 6); set-up: species or system BALB/c mice; settings: psoralen (AMT) alone with x-ray, phosphors alone with x-ray; relative to in-vitro expectation
Description: There were 6-8 mice per arm, and the study was repeated a second time, yielding effective sample sizes of 12-16. […] In the separate psoralen and phosphor control arms (blue and red respectively), 5 μM psoralen (AMT) and 100 μg of phosphor where applied. A consistent x-ray irradiation technique was used for all arms (except saline control) which was 2 Gy delivered at 75 kVp by 30 mA in 3 minutes.

KP158B (sarcoma) = experiment: UV light activated psoralen, Cell-Titer-Glo Luminescence Cell Viability Assay (FIG. 3A); format: cell-based, murine; settings: psoralen 40 μM; UV light 0, 0.25, 0.5, 1.0 J/cm^2
Description: as §1

4T1 = experiment: as above; format: cell-based, murine; settings: psoralen 40 μM; UV light 0, 0.25, 0.5, 1.0 J/cm^2
Description: as §1

4T1-HER2 cells = settings: multi-variable regression on 36 independent irradiation experiments

`O=c1ccc2cc3ccoc3cc2o1` [psoralen] was tested, and the “effect of UV light activated psoralen on viable cells” value (from here on “effect of UV light activated psoralen”) [1] was “reduce viable cells”, the “component effect in control arms” value [2] was “slightly higher component effect” and the “effect of UV light activated psoralen” value (KP158B (sarcoma)) was “reduce viable cells”. For the same compound, the “effect of UV light activated psoralen” value (4T1) was “reduce viable cells” and the “effect on cytotoxicity (Annexin V signal) of component alone” value (4T1-HER2 cells) was “neither psoralen nor phosphor alone had a strong effect on cytotoxicity”.
